Data reported in ChEMBL document CHEMBL5120866, “Design and Synthesis of Novel Celastrol Derivatives as Potential Anticancer Agents against Gastric Cancer Cells” (J Nat Prod, 2022).
Activity calls are given as the source filed them. The rule behind the calls is not given here.

How the values were obtained:
[1] = system: BGC-823; assay: Induction of cell cycle arrest in human BGC-823 cells assessed as accumulation of cells at G0/G1 phase at 0.6 uM incubated for 24 hrs by PI staining based flow cytometry method (reference value: 50.66%); assay type: functional
[2] = system: BGC-823; assay: Induction of cell cycle arrest in human BGC-823 cells assessed as accumulation of cells at G0/G1 phase at 0.15 uM incubated for 24 hrs by PI staining based flow cytometry method (reference value: 50.66%); assay type: functional
[3] = system: BGC-823; assay: Induction of cell cycle arrest in human BGC-823 cells assessed as accumulation of cells at G2/M phase at 0.6 uM incubated for 24 hrs by PI staining based flow cytometry method (reference value: 22.86%); assay type: functional
[4] = system: BGC-823; assay: Induction of mitochondrial dysfunction in human BGC-823 cells assessed as […] by measuring increase in green fluorescence at 0.15 to 0.6 uM incubated for 24 hrs by inverted fluorescent microscopic analysis; assay type: functional, cell-based; conditions: dose 0.15-0.6 µM
[5] = system: BGC-823; assay: Induction of cell cycle arrest in human BGC-823 cells assessed as accumulation of cells at G2/M phase at 0.15 uM incubated for 24 hrs by PI staining based flow cytometry method (reference value: 22.86%); assay type: functional
[6] = system: BGC-823; assay: Induction of apoptosis in human BGC-823 cells assessed as increase in number of apoptotic cells at 0.15 to 0.6 uM incubated for 24 hrs by Hoechst 33342 staining based flourescence microscopy method; assay type: functional, cell-based; conditions: dose 0.15-0.6 µM
[7] = system: BGC-823; assay: Induction of apoptosis in human BGC-823 cells assessed as necrotic cells at 0.15 uM incubated for 24 hrs by annexin-V-FITC and PI staining based flow cytometry analysis (reference value: 0.6%); assay type: functional
[8] = system: BGC-823; assay: Induction of apoptosis in human BGC-823 cells assessed as viable cells at 0.3 uM incubated for 24 hrs by annexin-V-FITC and PI staining based flow cytometry analysis (reference value: 96.3%); assay type: functional; conditions: read-out: Activity
[9] = system: BGC-823; assay: Downregulation of Cdc2 protein expression in human BGC-823 cells at 0.15 to 0.6 uM incubated for 24 hrs by Western blot analysis; assay type: functional, cell-based; conditions: dose 0.15-0.6 µM
[10] = system: BGC-823; assay: Induction of apoptosis in human BGC-823 cells assessed as late apoptotic cells at 0.15 uM incubated for 24 hrs by annexin-V-FITC and PI staining based flow cytometry analysis (reference value: 0.6%); assay type: functional
[11] = system: HeLa; assay: Antiproliferative activity against human HeLa cells assessed as cell growth inhibition incubated for 48 hrs by MTT assay; assay type: functional, cell-based
[12] = system: BGC-823; assay: Induction of apoptosis in human BGC-823 cells assessed as increase in cleaved PARP expression at 0.15 to 0.6 uM incubated for 24 hrs by Western blot analysis; assay type: functional, cell-based; conditions: dose 0.15-0.6 µM
[13] = Toxicity in athymic BALB/c nude mouse assessed as effect on liver at 1.5 mg/kg, ip measured after 21 days by H and E staining based histopathological analysis; assay type: organism-based; conditions: in vivo, 504 h, time 21 day
[14] = Toxicity in athymic BALB/c nude mouse assessed as effect on lung at 1.5 mg/kg, ip measured after 21 days by H and E staining based histopathological analysis; assay type: organism-based; conditions: in vivo, 504 h, time 21 day
[15] = system: BGC-823; assay: Induction of apoptosis in human BGC-823 cells assessed as viable cells at 0.15 uM incubated for 24 hrs by annexin-V-FITC and PI staining based flow cytometry analysis (reference value: 96.3%); assay type: functional; conditions: read-out: Activity
[16] = system: BGC-823; assay: Induction of mitochondrial dysfunction in human BGC-823 cells assessed as […] by measuring reduction in red fluorescence at 0.15 to 0.6 uM incubated for 24 hrs by inverted fluorescent microscopic analysis; assay type: functional, cell-based; conditions: dose 0.15-0.6 µM
[17] = system: BGC-823; assay: Induction of cell cycle arrest in human BGC-823 cells assessed as accumulation of cells at G2/M phase at 0.3 uM incubated for 24 hrs by PI staining based flow cytometry method (reference value: 22.86%); assay type: functional
[18] = system: BGC-823; assay: Induction of apoptosis in human BGC-823 cells assessed as early apoptotic cells at 0.3 uM incubated for 24 hrs by annexin-V-FITC and PI staining based flow cytometry analysis (reference value: 2.4%); assay type: functional
[19] = system: BGC-823; assay: Induction of apoptosis in human BGC-823 cells assessed as early apoptotic cells at 0.15 uM incubated for 24 hrs by annexin-V-FITC and PI staining based flow cytometry analysis (reference value: 2.4%); assay type: functional
[20] = system: BGC-823; assay: Induction of apoptosis in human BGC-823 cells assessed as late apoptotic cells at 0.6 uM incubated for 24 hrs by annexin-V-FITC and PI staining based flow cytometry analysis (reference value: 0.6%); assay type: functional
[21] = system: HCT-116; assay: Antiproliferative activity against human HCT-116 cells assessed as cell growth inhibition incubated for 48 hrs by MTT assay; assay type: functional, cell-based; conditions: HCT-116, 48 h
[22] = system: BGC-823; assay: Induction of cell cycle arrest in human BGC-823 cells assessed as accumulation of cells at S phase at 0.15 uM incubated for 24 hrs by PI staining based flow cytometry method (reference value: 26.01%); assay type: functional
[23] = system: BGC-823; assay: Induction of cell cycle arrest in human BGC-823 cells assessed as accumulation of cells at G0/G1 phase at 0.3 uM incubated for 24 hrs by PI staining based flow cytometry method (reference value: 50.66%); assay type: functional
[24] = system: BGC-823; assay: Induction of apoptosis in human BGC-823 cells assessed as necrotic cells at 0.6 uM incubated for 24 hrs by annexin-V-FITC and PI staining based flow cytometry analysis (reference value: 0.6%); assay type: functional
[25] = system: BGC-823; assay: Induction of apoptosis in human BGC-823 cells assessed as necrotic cells at 0.3 uM incubated for 24 hrs by annexin-V-FITC and PI staining based flow cytometry analysis (reference value: 0.6%); assay type: functional
[26] = system: BGC-823; assay: Antitumor activity against human BGC-823 cells xenografted in athymic BALB/c nude mouse assessed as tumor growth inhibition rate at 1.5 mg/kg, ip measured every 2 days for 21 days by curson caliper method relative to control; assay type: functional; conditions: BGC-823, 504 h, time 21 day, read-out: TGI
[27] = system: BGC-823; assay: Induction of apoptosis in human BGC-823 cells assessed as late apoptotic cells at 0.3 uM incubated for 24 hrs by annexin-V-FITC and PI staining based flow cytometry analysis (reference value: 0.6%); assay type: functional
[28] = system: BGC-823; assay: Antitumor activity against human BGC-823 cells xenografted in athymic BALB/c nude mouse assessed as reduction in mitosis at 1.5 mg/kg, ip measured after 21 days by H and E staining based analysis; assay type: functional, organism-based; conditions: time 21.0 day
[29] = system: BGC-823; assay: Downregulation of cyclin B1 protein expression in human BGC-823 cells at 0.15 to 0.6 uM incubated for 24 hrs by Western blot analysis; assay type: functional, cell-based; conditions: dose 0.15-0.6 µM
[30] = system: BGC-823; assay: Antitumor activity against human BGC-823 cells xenografted in athymic BALB/c nude mouse assessed increase in ROS level in tumor tissue by measuring increase in red fluorescence at 1.5 mg/kg, ip measured after 21 days by DHE staining based fluorescence microscopic analysis; assay type: functional, organism-based; conditions: time 21.0 day
[31] = system: HepG2; assay: Antiproliferative activity against human HepG2 cells assessed as cell growth inhibition incubated for 48 hrs by MTT assay; assay type: functional, cell-based; conditions: HepG2, 48 h
[32] = system: MCF7; assay: Antiproliferative activity against human MCF7 cells assessed as cell growth inhibition incubated for 48 hrs by MTT assay; assay type: functional, cell-based; conditions: MCF7, 48 h

IC50 [11]: 480 nM
IC50 [21]: 410 nM
IC50 [31]: 350 nM
IC50 [32]: 390 nM
Compound: CCOC(=O)c1cnn(CCCOC(=O)[C@]2(C)CC[C@]3(C)CC[C@]4(C)C5=CC=C6C(=CC(=O)C(O)=C6C)[C@]5(C)CC[C@@]4(C)[C@@H]3C2)c1
Activity [1]: 37.39%
Activity [2]: 48.17%
Activity [3]: 34.73%
Activity [4]: Active
Activity [5]: 23.89%
Activity [6]: Active
Activity [7]: 0.2%
viability at 0.3 µM [8]: 78.2%
Activity [9]: Active
Activity [10]: 0.5%
Activity [12]: Active
Activity [13]: Non-Toxic
Activity [14]: Non-Toxic
viability at 0.15 µM [15]: 94.9%
Activity [16]: Active
Activity [17]: 27.71%
Activity [18]: 16.5%
Activity [19]: 4.4%
Activity [20]: 21.7%
Activity [22]: 26.07%
Activity [23]: 46.1%
Activity [24]: 1.5%
Activity [25]: 0.4%
inhibition in vivo at 1.5 mg/kg [26]: 89.8%
Activity [27]: 4.8%
Activity [28]: Active
Activity [29]: Active
Activity [30]: Active
